“And” between values parts separate entries of the source, which are not always exact repeats. Identical values can stand only once. Inconclusive results and toxic doses are left out.
Test system: P335 leukemia ip, BDF1 mice, survival T/C %
Assay: NCI In Vivo Anticancer Drug Screen. Data for tumor model P335 Leukemia (intraperitoneal) in B6D2F1 (BDF1) mice
Settings: endpoint: mean survival time, higher = longer survival
Method: The antitumor activity of compounds was measured in mice bearing transplantable tumors. Survival or tumor size were measured and the results are expressed as the measurement made in the treated group (T) divided by the measurement made in the vehicle treated control group (C). The tumor model used in this assay is P335 Leukemia (intraperitoneal) in B6D2F1 (BDF1) mice

[1] = dose: 16.0 mg/kg/injection, schedule: Q01DX Z (ip), vehicle: carboxymethylcellulose (CMC)
[2] = dose: 125.0 mg/kg/injection, schedule: Q01DX Z (ip), vehicle: carboxymethylcellulose (CMC)
[3] = dose: 16.0 mg/kg/injection, schedule: Q01DX Z (sc), vehicle: steriod suspending solution
[4] = dose: 125.0 mg/kg/injection, schedule: Q01DX Z (sc), vehicle: steriod suspending solution
[5] = dose: 500.0 mg/kg/injection, schedule: Q01DX Z (sc), vehicle: steriod suspending solution
[6] = dose: 1000.0 mg/kg/injection, schedule: Q01DX Z (sc), vehicle: steriod suspending solution
[7] = dose: 0.25 mg/kg/injection, schedule: Q01DX Z (ip), vehicle: carboxymethylcellulose (CMC)
[8] = dose: 0.5 mg/kg/injection, schedule: Q01DX Z (ip), vehicle: carboxymethylcellulose (CMC)
[9] = dose: 250.0 mg/kg/injection, schedule: Q01DX Z (ip), vehicle: carboxymethylcellulose (CMC)
[10] = dose: 50.0 mg/kg/injection, schedule: Q01DX Z (ip), vehicle: carboxymethylcellulose (CMC)
[11] = dose: 9.4 mg/kg/injection, schedule: Q01DX Z (ip), vehicle: carboxymethylcellulose (CMC)
[12] = dose: 18.75 mg/kg/injection, schedule: Q01DX Z (ip), vehicle: carboxymethylcellulose (CMC)

CCCNc1ncnc2[nH]ncc12 was tested, and the T/C (dose: 0.62 mg/kg/injection, schedule: Q01DX Z (ip), vehicle: water) was 95 % of control and the T/C (dose: 5.0 mg/kg/injection, schedule: Q01DX Z (ip), vehicle: water) was 94 % of control.

CCN(CC)c1ccc2cc3ccc(=[N+](CC)CC)cc-3oc2c1 was tested, and the T/C (dose: 0.31 mg/kg/injection, schedule: Q01DX Z (ip), vehicle: carboxymethylcellulose (CMC)) was 87 % of control, the T/C (dose: 0.62 mg/kg/injection, schedule: Q01DX Z (ip), vehicle: carboxymethylcellulose (CMC)) was 97 % of control and 98 % of control and the T/C (dose: 1.25 mg/kg/injection, schedule: Q01DX Z (ip), vehicle: carboxymethylcellulose (CMC)) was 108 % of control and 123 % of control.

For OCC1OC(n2cnc3c(=S)nc[nH]c32)C(O)C1O (stereo unspecified), the T/C [1] was 87 % of control and 90 % of control, the T/C (dose: 31.0 mg/kg/injection, schedule: Q01DX Z (ip), vehicle: carboxymethylcellulose (CMC)) was 109 % of control and 110 % of control and the T/C (dose: 62.5 mg/kg/injection, schedule: Q01DX Z (ip), vehicle: carboxymethylcellulose (CMC)) was 98 % of control. The T/C [2] was 93 % of control.

With C[C@]12CCC(=O)C[C@H]1CC[C@@H]1[C@@H]2CC[C@@]2(C)[C@H]1CC[C@]2(C)O the T/C [3] was 106 % of control, the T/C (dose: 31.0 mg/kg/injection, schedule: Q01DX Z (sc), vehicle: steriod suspending solution) was 93 % of control and the T/C (dose: 62.5 mg/kg/injection, schedule: Q01DX Z (sc), vehicle: steriod suspending solution) was 98 % of control and 111 % of control. The T/C [4] was 111 % of control, the T/C (dose: 250.0 mg/kg/injection, schedule: Q01DX Z (sc), vehicle: steriod suspending solution) was 109 % of control and the T/C [5] was 109 % of control. The T/C [6] was 98 % of control.

For [I][Hg][CH2]C1COC([CH2][Hg][I])CO1 (stereo unspecified), the T/C (dose: 3.75 mg/kg/injection, schedule: Q01DX Z (ip), vehicle: carboxymethylcellulose (CMC)) was 110 % of control.

Nc1nc2n[nH]nc2c(=O)[nH]1 was tested, and the T/C (dose: 100.0 mg/kg/injection, schedule: Q01DX Z (ip), vehicle: other) was 115 % of control.

For CC[C@@H](c1ccc(O)cc1)[C@@H](CC)c1ccc(O)cc1, the T/C [3] was 96 % of control, the T/C (dose: 31.25 mg/kg/injection, schedule: Q01DX Z (sc), vehicle: steriod suspending solution) was 93 % of control and the T/C [4] was 96 % of control. The T/C [5] was 104 % of control and the T/C [6] was 95 % of control.

N#Cc1cn(C2OC(CO)C(O)C2O)c2ncnc(N)c12 (stereo unspecified) was tested, and the T/C [7] was 106 % of control and the T/C [8] was 98 % of control.

For O=c1[nH]c(=O)n(C2CC(O)C(CO)O2)cc1Br (stereo unspecified), the T/C [9] was 112 % of control, the T/C (dose: 500.0 mg/kg/injection, schedule: Q01DX Z (ip), vehicle: carboxymethylcellulose (CMC)) was 115 % of control and the T/C (dose: 1000.0 mg/kg/injection, schedule: Q01DX Z (ip), vehicle: carboxymethylcellulose (CMC)) was 94 % of control and 121 % of control.

NC(=O)c1cn(C2OC(CO)C(O)C2O)c2ncnc(N)c12 (stereo unspecified) was tested, and the T/C [7] was 101 % of control, the T/C [8] was 86 % of control and the T/C (dose: 16.0 micrograms/kg/injection, schedule: Q01DX Z (ip), vehicle: carboxymethylcellulose (CMC)) was 110 % of control. For the same molecule, the T/C (dose: 31.0 micrograms/kg/injection, schedule: Q01DX Z (ip), vehicle: carboxymethylcellulose (CMC)) was 104 % of control and the T/C (dose: 63.0 micrograms/kg/injection, schedule: Q01DX Z (ip), vehicle: carboxymethylcellulose (CMC)) was 105 % of control.

With CCOC(=O)NP(=O)(N1CC1(C)C)N1CC1(C)C (stereo unspecified) the T/C (dose: 4.0 mg/kg/injection, schedule: Q01DX Z (ip), vehicle: carboxymethylcellulose (CMC)) was 101 % of control, the T/C (dose: 8.0 mg/kg/injection, schedule: Q01DX Z (ip), vehicle: carboxymethylcellulose (CMC)) was 106 % of control and the T/C [1] was 114 % of control. For the same molecule, the T/C (dose: 31.25 mg/kg/injection, schedule: Q01DX Z (ip), vehicle: carboxymethylcellulose (CMC)) was 101 % of control, the T/C [2] was 88 % of control and the T/C [9] was 93 % of control.

O=c1[nH]c(=O)n(C2CC(O)C(CO)O2)cc1I (stereo unspecified) was tested, and the T/C (dose: 225.0 mg/kg/injection, schedule: Q01DX Z (ip), vehicle: carboxymethylcellulose (CMC)) was 93 % of control and the T/C (dose: 450.0 mg/kg/injection, schedule: Q01DX Z (ip), vehicle: carboxymethylcellulose (CMC)) was 104 % of control.

With COc1cc2c(c(OC)c1OC)-c1ccc(OC)c(=O)cc1[C@@H](NC(C)=O)CC2 the T/C (dose: 63.0 micrograms/kg/injection, schedule: Q01DX Z (ip), vehicle: saline) was 104 % of control, the T/C (dose: 125.0 micrograms/kg/injection, schedule: Q01DX Z (ip), vehicle: saline) was 101 % of control and the T/C (dose: 250.0 micrograms/kg/injection, schedule: Q01DX Z (ip), vehicle: saline) was 104 % of control.

For C[C@]12CC[C@H](OC3OC(CO)C(O)C(O)C3O)C[C@H]1CC[C@@H]1[C@@H]2CC[C@]2(C)[C@@H](C3=CCOC3=O)CC[C@]12O (stereo partly specified), the T/C (dose: 0.04 mg/kg/injection, schedule: Q01DX Z (ip), vehicle: saline) was 97 % of control, the T/C (dose: 0.08 mg/kg/injection, schedule: Q01DX Z (ip), vehicle: saline) was 96 % of control and the T/C (dose: 0.16 mg/kg/injection, schedule: Q01DX Z (ip), vehicle: saline) was 92 % of control. The T/C (dose: 0.31 mg/kg/injection, schedule: Q01DX Z (ip), vehicle: saline) was 86 % of control.

With O=C(Nc1ccc(C2=NCCCN2)cc1)c1ccc(C(=O)Nc2ccc(C3=NCCCN3)cc2)cc1 the T/C (dose: 0.4 mg/kg/injection, schedule: Q01DX Z (ip), vehicle: water) was 98 % of control, the T/C (dose: 1.6 mg/kg/injection, schedule: Q01DX Z (ip), vehicle: water) was 154 % of control and the T/C (dose: 3.1 mg/kg/injection, schedule: Q01DX Z (ip), vehicle: water) was 207 % of control.

CN(C)c1ccc(/C=C/c2ccnc3ccccc23)cc1 was tested, and the T/C (dose: 1.6 mg/kg/injection, schedule: Q01DX Z (ip), vehicle: carboxymethylcellulose (CMC)) was 94 % of control, the T/C (dose: 3.1 mg/kg/injection, schedule: Q01DX Z (ip), vehicle: carboxymethylcellulose (CMC)) was 89 % of control and the T/C (dose: 6.2 mg/kg/injection, schedule: Q01DX Z (ip), vehicle: water) was 100 % of control. For the same molecule, the T/C (dose: 6.25 mg/kg/injection, schedule: Q01DX Z (ip), vehicle: carboxymethylcellulose (CMC)) was 90 % of control and 105 % of control, the T/C (dose: 12.5 mg/kg/injection, schedule: Q01DX Z (ip), vehicle: water) was 95 % of control and the T/C (dose: 25.0 mg/kg/injection, schedule: Q01DX Z (ip), vehicle: water) was 92 % of control. For the same molecule, the T/C [10] was 118 % of control.

In the case of O=C1CCC(N2C(=O)c3ccccc3C2=O)C(=O)N1 (stereo unspecified), the T/C [11] is reported as 92 % of control, the T/C [12] is reported as 86 % of control and 97 % of control and the T/C (dose: 37.5 mg/kg/injection, schedule: Q01DX Z (ip), vehicle: carboxymethylcellulose (CMC)) is reported as 88 % of control and 90 % of control and 119 % of control. The T/C (dose: 75.0 mg/kg/injection, schedule: Q01DX Z (ip), vehicle: carboxymethylcellulose (CMC)) was 100 % of control and 102 % of control, the T/C (dose: 150.0 mg/kg/injection, schedule: Q01DX Z (ip), vehicle: carboxymethylcellulose (CMC)) was 88 % of control and 98 % of control and the T/C (dose: 300.0 mg/kg/injection, schedule: Q01DX Z (ip), vehicle: carboxymethylcellulose (CMC)) was 86 % of control.

For N#CCSc1ncnc2nc[nH]c12, the T/C [10] was 93 % of control, the T/C (dose: 100.0 mg/kg/injection, schedule: Q01DX Z (ip), vehicle: carboxymethylcellulose (CMC)) was 93 % of control and the T/C (dose: 200.0 mg/kg/injection, schedule: Q01DX Z (ip), vehicle: methylcellulose (MC)) was 91 % of control.

For CCN(CC)CCNc1ccc(C)c2sc3ccccc3c(=O)c12, the T/C (dose: 0.78 mg/kg/injection, schedule: Q01DX Z (ip), vehicle: methylcellulose (MC)) was 89 % of control, the T/C (dose: 6.25 mg/kg/injection, schedule: Q01DX Z (ip), vehicle: methylcellulose (MC)) was 92 % of control and the T/C (dose: 50.0 mg/kg/injection, schedule: Q01DX Z (ip), vehicle: methylcellulose (MC)) was 89 % of control. The T/C (dose: 100.0 mg/kg/injection, schedule: Q01DX Z (ip), vehicle: methylcellulose (MC)) was 93 % of control.

In the case of Nc1nc(SCc2ccccc2)c2[nH]cnc2n1, the T/C (dose: 2.35 mg/kg/injection, schedule: Q01DX Z (ip), vehicle: carboxymethylcellulose (CMC)) is reported as 87 % of control, the T/C [11] is reported as 108 % of control and the T/C [12] is reported as 87 % of control.

O=c1[nH]cc(F)c(=O)[nH]1 was tested, and the T/C (dose: 0.78 mg/kg/injection, schedule: Q01DX Z (ip), vehicle: saline) was 103 % of control, the T/C (dose: 2.34 mg/kg/injection, schedule: Q01DX Z (ip), vehicle: saline) was 123 % of control and the T/C (dose: 4.68 mg/kg/injection, schedule: Q01DX Z (ip), vehicle: saline) was 118 % of control. The T/C (dose: 9.35 mg/kg/injection, schedule: Q01DX Z (ip), vehicle: saline) was 113 % of control, the T/C (dose: 12.5 mg/kg/injection, schedule: Q01DX Z (ip), vehicle: saline) was 100 % of control and the T/C (dose: 18.7 mg/kg/injection, schedule: Q01DX Z (ip), vehicle: saline) was 108 % of control. The T/C (dose: 100.0 mg/kg/injection, schedule: Q01DX Z (ip), vehicle: saline) was 93 % of control.
